Columns and labels:
[1] = test system: DysE17 flies; experiment: Climbing assay (negative geotaxis) in dystrophic Drosophila fed amiodarone; format: in vivo, Drosophila melanogaster
Description: The genetic loss-of-function homozygous Drosophila mutant for dystrophin (dys), DysE17 (hiips://flybase.org/reports/FBal0241311.html) was employed as a Duchenne muscular dystrophy model, which carries a point mutation on chromosome 3 (location: 92A10, 3R:19,590,458 . . . 19,590,458) causing a nucleotide change C19590458T and consequently the amino acid change Q2807term|Dys-PA. This is a termination codon determining full-length dys protein to be abnormally shortened. As control, the wild-type Oregon-R strain was used.
The adult wild-type animals and mutant fruit flies were treated with amiodarone at increasing concentrations, supplemented in the food for 30 days.
Eclosed Oregon-R and homozygous DysE17 Drosophila (1-2 days of adult age) were placed in vials (10-15 animals/vials) and reared on 4-5 ml of either the standard medium or medium supplemented with amiodarone at increasing doses (100 nM, 1 μM, 10 μM, 20 μM, and 50 μM). Food was replaced each 5 days. Amiodarone-supplemented diets were freshly prepared by mixing amiodarone with appropriate amounts of standard food just before the administration to animals. At least 3 vials per group were prepared within each experiment. Each experiment was repeated 3 or more times: in total, a minimum of 60 animals per experimental condition was analysed.
• Oregon-R receiving vehicle (DMSO 1:1000); • DysE17 flies receiving vehicle (DMSO 1:1000); • DysE17 flies receiving 100 nM amiodarone; • DysE17 flies receiving 1 μM amiodarone; • DysE17 flies receiving 10 μM amiodarone; • DysE17 flies receiving 20 μM amiodarone; • DysE17 flies receiving 50 μM amiodarone.
Flies were treated for 30 days (treatments ended when animals reached 30 days of adult age), with food renewal each 5 days.
Geotaxis was assessed using a climbing assay (negative geotaxis reflex in opposition to the Earth's gravity). A horizontal line was drawn 15 cm above the bottom of the vial. After a 10 minutes rest period, the flies were tapped to the bottom of the vials: all flies were forced to start climbing (vertical walking). The number of flies that climbed up to the 15 cm mark after 60 seconds was recorded as the percentage success rate. A camera recorded fly movement during the experiment. Each trial was performed three times, at one-minute intervals, and the results averaged. Climbing performance was assessed each 5 days starting from day 1-2 of adult age (just after eclosion) and ending at 30 days.
For the validation study, the climbing efficiency and muscle structure of adult wild-type animals and DysE17 mutants were analyzed after food supplementation with amiodarone at increasing concentrations for 0-30 days (geotaxis assay).

[2] = test system: denervated mice; experiment: Denervation (sciatic nerve transection) muscle wasting mouse model with oral amiodarone; format: in vivo
Method: Animals were anesthetized by a ketaminexylazine cocktail and a small incision ([…]) was made in the left tight skin. The sciatic nerve was exposed with the help of a small surgical hook and then cut before the separation of sciatic nerve branches. A small (2-5 mm) nerve section was removed to prevent re-innervation. Denervation was performed unilaterally, using the contralateral hindlimb as a negative control. Tissues were collected 2, 6, 12 or 15 days after denervation surgery.
In denervation+/−Amiodarone experiments, mice were treated for 13 days with Amiodarone and were sacrificed 5 days post induced-denervation (from day −7 up day+5 upon denervation).
(§1) Mice (C57BL6 mice) were treated with 0.45 mg/ml Amiodarone (Sigma, A8423, St. Louis, MO, USA) (Bagchiet al., Circulation Research 1987; 60:621-625; Lee et al., Oncotarget, 2015; 6(40): 42976-42987) in drinking water ad libitum starting 1 week before the induced-denervation or cachexia, until sacrifice.
(§2) Preparation of amiodarone: 45 mg dissolved in 1 ml of water for 10 minutes at 80° C.
In denervation mice models, mice were treated with oral amiodarone for 13 days (from day −7 up day+5 upon denervation).

[3] = test system: C26-injected mice; experiment: C26 tumor-induced cancer cachexia mouse model with oral amiodarone; format: in vivo
Method: Murine colon 26 adenocarcinoma cells (C26) were cultured in DMEM containing 10% fetal bovine serum, 100 U/ml penicillin, and 100 μg/ml streptomycin. For in vivo inoculation, a single suspension of 7×10^6 cells in 100 μl of physiological saline was injected subcutaneously into the right flank of the BALB/c mice. The same volume of physiological saline was injected into the control groups.
In cachexia+/−Amiodarone experiments, mice were treated for 18 days with Amiodarone and were sacrificed 7 days post induced-cachexia. Amiodarone was given from […] (day 1 is the day of cells injection).
as §1, §2
In tumor-induced cachexia mice models, mice were treated with oral amiodarone for 18 days (−7/+11 relative to C26 injection) (FIG. 10A). Matched group of amiodarone-treated and control mice were injected with C26 cells, and muscle wasting was monitored to different days following injection.

[4] = test system: mice with full-thickness skin wounds; experiment: Skin wound healing in rT3-treated mice; format: in vivo, mouse
Method: The back fur of mice was shaved and the skin was cleaned with 70% alcohol. The dorsal skin was pulled using forceps and two 8-mm full-thickness skin wounds were created along the midline using a sterile 8 mm circular biopsy punch by pressing through both layers of the skin pull. Skin wound healing was measured every 2-3 days by anesthetizing the animals and imaging the wounded area.
Excisional, full-thickness skin wounds were aseptically made on the dorsal skin by picking up a fold skin at the midline and using a sterile, disposable biopsy punch with a diameter of 8 mm to punch through the two layers of skin. In this manner, two wounds were made on each side of the midline at the same time. Each wound site was digitally photographed using the Nikon FX-35A at the indicated time intervals, and wound areas were determined on photographs using CellF*. Changes in wound areas were expressed as the percentage of the initial wound areas.
(§3) In vivo: mice (C56BL6 mice) were treated systemically with an i.v. injection of 100 μl of 30 ng/μl rT3 (Sigma Aldrich) or PBS vehicle control to consecutive 4 days.
In a similar setting, the present inventors also tested whether D2 inhibition positively affected wound regeneration in skin.

[5] = test system: mice with CTX-injured tibialis anterior (TA) muscle; experiment: Muscle regeneration after cardiotoxin (CTX) injury in rT3-treated mice; format: in vivo, mouse
Method: Animals were anesthetized by a ketaminexylazine cocktail, and 12,5 μl of 60 μg/ml CTX (Naja mossambica mossambica, Sigma-Aldrich) was injected into and along the length of the right tibialis anterior (TA) (Yan, 2003 J Biol Chem 278(10): 8826-8836) and 25 μl into gastrocnemius muscle. CTX was injected on different day from Tam.
The tibialis anterior (TA) muscles were dissected and fixed in isopentane in liquid nitrogen, and sliced into 7 μm sections. The cross-sectional area was analyzed and quantified using CellF*Olympus Imaging Software.
Dissected muscles were snap frozen in liquid nitrogen-cooled isopentane, sectioned (7 μm thick) and stained. For immunofluorescent staining, cells or section were fixed with 4% formaldehyde (PFA) and permeabilized in 0.1% Triton X-100, then blocked with 0.5% goat serum and incubated with primary antibody. Alexa Fluor™ 594/647-conjugated secondary antibody was used. Images were acquired with an IX51 Olympus microscope and the Cell*F software. For hematoxylin/eosin staining (H&E), sections were fixed for 15 min and placed in hematoxylin for 5 min followed washed, and 5 min in Eosin.
as §3
To therapeutically exploit the capacity of D2-depletion to activate stem cells and accelerate muscle tissue repair, mice were treated with oral reverse triiodothyronine (rT3, a specific D2-inhibitor) for 7 days (−5/+2 relative to CTX injury) (FIG. 7A).

[6] = test system: pp6 cells; experiment: TNFα-induced cell death (PARP immunoblot) in muscle cells with or without rT3; format: cell-based, mouse; conditions: TNFα 24 h; rT3 30 nM
Method: Primary muscle cultures (pp6) were isolated as described (Qu et al., 1998 J Cell Biol 142(5): 1257-1267) from the indicated mouse lines. Immortalized myoblasts (C2C12) were obtained from ATCC. Proliferating cells were cultured in 20% Fetal Bovine Serum Dulbecco's modified Eagle's medium at 37° C. with penicillin/streptomycin. Transient transfections were performed using Lipofectamine 2000 (Life Technologies) according to the manufacturer's instructions. Anti-MyoD (sc-304) and tubulin (sc-8035) antibodies were purchased from Santa Cruz Biotechnology. Anti-Pax7 antibody were from Developmental Studies Hybridoma Bank. Anti-PARP was from Cell Signaling Technology.
Total protein extracts from cells and tissues were run on a 10% sodium dodecyl sulfate-polyacrylamide gel electrophoresis gel and transferred to an Immobilon-P transfer membrane (Millipore, Billerica, MA). The membrane was then blocked with 5% nonfat dry milk in phosphate buffered saline, probed with the primary antibody, washed and incubated with horseradish peroxidase-conjugated donkey anti-rabbit or mouse immunoglobulin G secondary antibody (1:3000), and detected by chemiluminescence (Millipore). After extensive washing, the membrane was incubated with antitubulin-specific or ERK antibody (1:10,000; sc-8035, Santa Cruz, Dallas, TX) as loading control.
In vitro: Pp6 or C2C12 cells were treated with rT3 (30 nM) […]

[7] = gastrocnemius, oral amiodarone 13 days (day −7 to +5 upon denervation), vs control
[8] = TA muscle, 11 days after C26 cells injection, vs control
[9] = 7 days post-CTX, oral rT3 for 7 days (−5/+2 relative to CTX injury), vs control

SMILES: CCCCc1oc2ccccc2c1C(=O)c1cc(I)c(OCCN(CC)CC)c(I)c1 [Amiodarone (AMIO), Amiodarone]
- functional deficits vs untreated Dys animals ([1]; after 25-30 days of treatment): the same functional deficits
- damaged animals (climbing decay) ([1]; amiodarone 10 μM for 15 days, untreated Dys 35%): 18%
- damaged animals (climbing decay) ([1]; amiodarone 10 μM for 20 days, untreated Dys 55%): 32%
- most effective concentration on fly mobility ([1]; doses 100 nM to 50 μM in food, 30 days): 10 µM
- muscle structure of functionally recovered muscles ([1]; dystrophic mutant flies, chronic amiodarone): still compromised at structural level
- effect on climbing decay of dystrophic animals ([1]; higher concentrations, 20-50 μM): did not alter the climbing decay
- effect on fly mobility ([1]; increasing doses from 100 nM to 10 μM): dose-dependent beneficial effect
- effect on mobility at shorter times ([1]; treatment shorter than 15 days (10 days)): no effects
- muscle wasting (gastrocnemius muscle mass) ([2]; after denervation, oral amiodarone 13 days): preserved from massive muscle wasting
- Atrogin-1 mRNA expression [2, 7]: potently down-regulated
- MuRF-1 mRNA expression [2, 7]: potently down-regulated
- Atrogin-1 mRNA expression [3, 8]: potently down-regulated
- MuRF-1 mRNA expression [3, 8]: potently down-regulated
- survival ([3]; after C26 cells injection, control mice about 12.7 days): > 27 days
- tumor weight ([3]; amiodarone-treated vs control mice, 11 days after C26 cells injection): no significant effects
- muscle wasting (body, heart, TA and GC weight) ([3]; oral amiodarone for 18 days (−7/+11 relative to C26 injection), vs control): preserved from massive muscle wasting

SMILES: N[C@@H](Cc1ccc(Oc2cc(I)c(O)c(I)c2)c(I)c1)C(=O)O [Reverse triiodothyronine (rT3), 3,3′5′-triiodothyronine]
- regrowth of hair in the shaved area ([4]; later time points following skin wounding (28 days post-injury)): more complete regrowth of hair
- wound repair ([4]; rT3-treated mice vs control): more rapidly and efficiently than control
- fiber size (cross-sectional area) [5, 9]: smaller than control
- number of fibers (H&E) [5, 9]: increased number of fibers
- fiber size (cross-sectional area) ([5]; 21 days after injury, rT3 for 7 days, vs control): larger fibers
- Pax7+/EdU+ cells ([5]; TA sections, rT3 treated mice vs control): increased than control
- TNFα-induced apoptosis [6]: protected from apoptosis

— patent publication US20240293441A1, “NEW THERAPEUTIC USE OF TYPE 2 IODOTHYRONINE DEIODINASE (D2) INHIBITORS” (MATERIAS S.R.I, priority 2021, published 2024)
